Consider nine compounds from ChEMBL document CHEMBL5143642, “Thiosemicarbazone derivatives: Evaluation as cruzipain inhibitors and molecular modeling study of complexes with cruzain” (Bioorg Med Chem, 2022).

Broadly, the IC50 is the midpoint of a concentration-inhibition curve.

The target of this assay is Cruzipain (Trypanosoma cruzi, UniProt P25779). In words: Inhibition of epimastigote form of Trypanosoma cruzi Tulahuen 2 cruzain assessed as reduction in 7-amino-4-methylcoumarin release incubated for 20 mins folllowed by Z-FR-AMC substrate addition and measured up to 45 mins by fluorometric assay.
Sequence of Cruzipain (P25779 whole entry): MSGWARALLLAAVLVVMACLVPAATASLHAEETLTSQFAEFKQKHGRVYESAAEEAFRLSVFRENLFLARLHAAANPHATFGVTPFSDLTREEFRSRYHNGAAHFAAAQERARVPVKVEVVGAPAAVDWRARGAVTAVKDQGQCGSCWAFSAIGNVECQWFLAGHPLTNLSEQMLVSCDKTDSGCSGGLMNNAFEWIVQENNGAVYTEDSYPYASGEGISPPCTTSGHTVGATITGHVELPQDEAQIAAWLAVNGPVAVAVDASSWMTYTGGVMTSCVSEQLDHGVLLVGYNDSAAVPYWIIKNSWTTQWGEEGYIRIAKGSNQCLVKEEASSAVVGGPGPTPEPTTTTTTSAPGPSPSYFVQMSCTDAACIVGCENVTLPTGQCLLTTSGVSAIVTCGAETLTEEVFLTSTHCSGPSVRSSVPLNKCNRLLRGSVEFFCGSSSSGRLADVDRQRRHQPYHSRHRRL
In the case of `COc1cccc(/C(C)=N/N=C(/N)S)c1`, the IC50 is 1470 µM.

Turning to `C/C(=N\NC(N)=S)c1ccc([N+](=O)[O-])cc1`, the 50% inhibitory concentration (IC50) was determined as 7.6 µM.

With `CC/C(=N\N=C(\N)S)c1ccc(Cl)c(Cl)c1`, the IC50 stood at 0.0695 µM.

In the case of `C/C(=N\N=C(\N)S)c1ccc(Cl)c(Cl)c1`, the IC50 was determined as 0.147 µM.

For `CC/C(=N\NC(N)=S)c1cccc([N+](=O)[O-])c1`, the half-maximal inhibitory concentration (IC50) stood at 0.753 µM.

As to `CC/C(=N\N=C(\N)S)c1cccc(Cl)c1`, the half-maximal inhibitory concentration (IC50) came to 23.2 µM.

Regarding `NC(=S)N/N=C/c1cccc(Cl)c1`, the IC50 is 105 µM.

For the compound `C/C(=N\NC(N)=S)c1cccc(Cl)c1`, the half-maximal inhibitory concentration (IC50) worked out at 29.9 µM.

For `N/C(S)=N/N=C/c1ccc(Cl)c(Cl)c1`, the concentration for half-maximal inhibition (IC50) is 0.0816 µM.
